Results from patent publication US7208178B2, “Polymorphs of sodium 4-[(4-chloro-2-hydroxybenzoyl) amino] butanoate” (Emisphere Technologies, Inc., priority 2000, dated 2007).

Test: Solid-state stability of amorphous form at ambient conditions
Type: physicochemical
Conditions: amorphous form prepared by solidification, from solution or lyophilization

O=C(O)CCCNC(=O)c1ccc(Cl)cc1O [amorphous form, sodium 4-[(4-chloro-2-hydroxybenzoyl)amino]butanoate]
stability at ambient conditions: unstable at ambient conditions and transforms to Form II
